SMILES strings stand for the structures. Where two headings read alike, the source gives them in different places.

For test [1], the system named is Jurkat T human leukemic cell line. As to the kind of experiment: In vitro T cell migration assay. It counts as cell-based. As for the experimental part: Inhibitory activities of FAK inhibitors on the mobility of immune cells are secured by the following in vitro study. […] Cell mobility is appraised through the number of cells migrated into lower chamber by labeling with calcein-AM (Molecular Probes, Netherlands) at 8 μg/ml in HBSS for 1 h.

Test [2] relates to Mouse mammary carcinoma 4T1 cells. As to the kind of experiment: Anchorage-independent tumor cell growth assay. It counts as cell-based. As for the experimental part: Cells are cultured for 2 h and inhibitors are added at various concentrations in a final concentration of 0.1% DMSO. After 48 h, cell growth is assayed with the cell counting kit-8 (Wako Pure Chemical), which uses a water soluble tetrazolium salt WST8. Twenty μL of the reagent is added into each well and cells are further cultured for 2 h. The optical density is measured at 450 nm.

Another test concerns the target human FAK kinase domain (Homo sapiens, UniProt Q05397). As to the kind of experiment: FAK assay (FRET, Biot-Y397 peptide).
A further test has as its target FAK (Tyr397) (Mus musculus, UniProt P34152). As to the kind of experiment: Phosphorylation levels of FAK at Tyr397 (sandwich ELISA, 4T1 cells).
Another test concerns the target T1, human IGF-IR (Homo sapiens, UniProt P08069).
T1 construct: transfected with human IGF-IR cDNA (complete human IGF-IR cDNA); expressed in transfected cells; host or cells: NIH-3T3 mouse fibroblasts
As to the kind of experiment: IGF-I induced IGF-IR autophosphorylation, cellular Capture ELISA. Conditions: read-out: IGF-1R IC50. It counts as cell-based. The method, then:
In this assay the activity of the compounds of the invention against Insulin-like growth factor I (IGF-I) induced autophosphorylation of the IGF-IR is determined.
The cells which overexpress human IGF-IR are cultured in Dulbecco's minimal essential (DMEM) medium, containing 10% Fetal Calf Serum (FCS). […] On day 3 the medium is discarded and the cells are incubated for 24 h in minimal medium (DMEM, containing 0.5% FCS).
The medium is discarded and the cells are washed twice with PBS/O (=Phosphate-Buffered Saline without CaCl2) and lysed for 15 min on ice with 50 μl/well RIPA-buffer [50 mM Tris.HCl, pH=7.2, 120 mM NaCl, 1 mM EDTA, 6 mM EGTA, 1% NP-40, 20 mM NaF, 1 mM benzamidine, 15 mM sodium pyrophosphate, 1 mM Phenyl methyl sulphonyl fluoride (PMSF) and 0.5 mM Na3VO4] and shaken for 10 min using a 96-well plate shaker (=cellular extracts).
The plates are washed twice with 0.05% (v/v) Tween-20 in Phosphate-Buffered Saline (PBS) and once with nanopure H2O. […] After blocking, the plates are washed once with nanopure H2O.
After incubating the extracts and the secondary antibody for 2 h at 4° C., the extracts are discarded, the plates are washed twice with 0.05% (v/v) Tween-20 in PBS and once with nanopure water.
90 μl/well AP substrate (CDP-Star; obtained from Tropix; Cat. No.: MS100RY) are then added and the plates are incubated for 45 min at RT in the dark, followed by measuring AP activity in a Packard Top Count Microplate Scintillation Counter. The IC50 values for the compounds of formula I are calculated via linear regression analysis using the GraphPad Instat program (GraphPad Software, USA).

Chain of FAK (Tyr397) (P34152 whole entry): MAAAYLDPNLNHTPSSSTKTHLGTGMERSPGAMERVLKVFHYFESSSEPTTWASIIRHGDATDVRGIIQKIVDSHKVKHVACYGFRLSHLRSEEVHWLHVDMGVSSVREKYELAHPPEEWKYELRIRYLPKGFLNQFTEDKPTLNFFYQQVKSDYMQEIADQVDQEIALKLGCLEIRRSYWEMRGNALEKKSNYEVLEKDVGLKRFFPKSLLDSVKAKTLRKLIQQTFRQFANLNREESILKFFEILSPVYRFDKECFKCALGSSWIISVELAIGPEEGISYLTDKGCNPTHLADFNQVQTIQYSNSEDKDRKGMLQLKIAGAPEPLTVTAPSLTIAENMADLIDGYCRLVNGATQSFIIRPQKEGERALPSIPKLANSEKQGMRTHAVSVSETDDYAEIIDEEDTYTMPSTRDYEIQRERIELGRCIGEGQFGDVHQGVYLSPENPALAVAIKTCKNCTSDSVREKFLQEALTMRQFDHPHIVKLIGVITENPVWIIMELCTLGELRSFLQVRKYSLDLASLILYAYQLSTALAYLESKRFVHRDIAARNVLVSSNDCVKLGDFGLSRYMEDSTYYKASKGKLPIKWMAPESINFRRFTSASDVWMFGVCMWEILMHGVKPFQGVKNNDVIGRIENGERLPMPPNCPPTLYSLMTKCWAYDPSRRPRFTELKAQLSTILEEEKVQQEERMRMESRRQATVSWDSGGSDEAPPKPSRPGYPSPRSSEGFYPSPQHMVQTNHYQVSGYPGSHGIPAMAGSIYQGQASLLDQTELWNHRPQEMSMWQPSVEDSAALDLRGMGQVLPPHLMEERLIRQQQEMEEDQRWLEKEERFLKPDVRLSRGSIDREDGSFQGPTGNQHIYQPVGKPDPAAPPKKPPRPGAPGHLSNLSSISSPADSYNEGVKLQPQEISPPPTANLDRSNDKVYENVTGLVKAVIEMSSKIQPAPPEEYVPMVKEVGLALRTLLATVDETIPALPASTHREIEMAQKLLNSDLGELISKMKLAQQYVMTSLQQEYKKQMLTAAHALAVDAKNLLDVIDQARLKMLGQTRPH
Chain of human FAK kinase domain (Q05397 384-706): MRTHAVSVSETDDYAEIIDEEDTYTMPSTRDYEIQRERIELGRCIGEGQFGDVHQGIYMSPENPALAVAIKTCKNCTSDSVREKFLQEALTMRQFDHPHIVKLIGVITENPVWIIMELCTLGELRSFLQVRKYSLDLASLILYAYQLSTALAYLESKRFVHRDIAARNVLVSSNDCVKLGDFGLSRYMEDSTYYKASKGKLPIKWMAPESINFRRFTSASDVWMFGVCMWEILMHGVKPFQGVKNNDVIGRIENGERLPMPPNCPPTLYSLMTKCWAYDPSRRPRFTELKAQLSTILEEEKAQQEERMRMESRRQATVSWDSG
T1 sequence (P08069 31-1367): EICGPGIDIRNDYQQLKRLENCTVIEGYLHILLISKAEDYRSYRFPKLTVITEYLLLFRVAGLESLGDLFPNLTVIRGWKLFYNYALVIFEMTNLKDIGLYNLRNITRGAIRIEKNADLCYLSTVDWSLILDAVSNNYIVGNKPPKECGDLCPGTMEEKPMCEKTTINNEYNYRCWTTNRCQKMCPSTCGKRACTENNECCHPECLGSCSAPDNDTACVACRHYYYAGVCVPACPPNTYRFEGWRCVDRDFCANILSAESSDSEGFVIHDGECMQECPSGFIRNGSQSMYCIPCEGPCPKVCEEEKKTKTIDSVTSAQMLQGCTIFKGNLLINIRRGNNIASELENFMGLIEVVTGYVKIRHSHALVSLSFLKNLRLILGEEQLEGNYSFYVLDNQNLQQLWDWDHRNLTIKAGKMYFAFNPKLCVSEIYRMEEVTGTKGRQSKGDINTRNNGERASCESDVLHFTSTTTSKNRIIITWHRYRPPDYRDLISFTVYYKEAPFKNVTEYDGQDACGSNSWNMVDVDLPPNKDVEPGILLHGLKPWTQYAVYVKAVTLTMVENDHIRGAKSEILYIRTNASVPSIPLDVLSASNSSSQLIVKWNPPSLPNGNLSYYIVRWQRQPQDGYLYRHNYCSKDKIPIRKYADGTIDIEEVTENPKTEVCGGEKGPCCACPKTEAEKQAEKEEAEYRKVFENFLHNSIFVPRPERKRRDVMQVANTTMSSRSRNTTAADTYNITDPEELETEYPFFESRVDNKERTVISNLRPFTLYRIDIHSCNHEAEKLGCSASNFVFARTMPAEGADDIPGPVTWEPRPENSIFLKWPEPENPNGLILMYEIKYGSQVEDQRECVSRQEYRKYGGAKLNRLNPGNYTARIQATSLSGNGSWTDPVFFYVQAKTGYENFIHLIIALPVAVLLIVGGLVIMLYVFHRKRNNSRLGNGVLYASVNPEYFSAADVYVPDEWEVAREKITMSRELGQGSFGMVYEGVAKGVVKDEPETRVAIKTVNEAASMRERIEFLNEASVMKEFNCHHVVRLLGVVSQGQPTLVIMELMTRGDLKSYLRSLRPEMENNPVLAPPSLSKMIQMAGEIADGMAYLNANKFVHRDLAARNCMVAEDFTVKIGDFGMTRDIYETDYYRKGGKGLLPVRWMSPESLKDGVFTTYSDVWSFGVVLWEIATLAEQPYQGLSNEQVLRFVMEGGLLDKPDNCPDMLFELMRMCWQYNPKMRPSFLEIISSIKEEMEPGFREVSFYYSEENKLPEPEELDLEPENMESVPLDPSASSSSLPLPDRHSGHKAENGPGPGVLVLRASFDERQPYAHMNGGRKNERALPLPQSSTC
Experimental for FAK (Tyr397): Phosphorylation levels of FAK at Tyr397 is quantified by the sandwich ELISA. Mouse mammary carcinoma 4T1 cells (1×10^5) are plated in wells of 96-well culture plates and incubated with or without various concentrations of inhibitors for 1 h in Dulbecco's modified eagle medium containing 0.5% BSA. The medium is removed and cells are lysed in 200 μL 50 mM Tris-HCl, pH 7.4, containing 1% NP-40, 0.25% sodium deoxycholate, 150 mM NaCl, 1 mM EDTA, 1 mM PMSF, 1 mM Na3VO4, 1 mM NaF, 1 μg/mL aprotinin, 1 μg/mL leupeptin and 1 μg/mL pepstatin. […] The concentration of compound causing 50% reduction of phosphorylation level of FAK is determined.
Experimental for human FAK kinase domain: All steps are performed in a 96-well black microtiter plate. […] The enzyme reaction is started by addition of 5 μL of 5 μM ATP in water and the mixture is incubated for 3 hours at 37° C. […] The results are shown as percent inhibition of enzyme activity. […] IC50 values are determined by non-linear curve fit analysis using the OriginPro 6.1 program (OriginLab).

In test [1], `COc1cc(N2CCC(N(C)C)C2)ccc1Nc1ncc(Cl)c(Nc2ccccc2S(=O)(=O)NC(C)C)n1` (stereo not drawn) [Example 19-9] returned a half-maximal inhibitory concentration (IC50) of 300 nM.

In test [1], `CC(C)NS(=O)(=O)c1ccccc1Nc1nc(Nc2ccc(OC3CCN(C)CC3)cc2F)ncc1Cl` [Example 19-28] yielded an IC50 of 300 nM. In turn, `CCN1CCN(c2ccc(Nc3ncc(Cl)c(Nc4ccccc4S(=O)(=O)C(C)C)n3)c(OC)c2)CC1` [Example 28-12] displayed an IC50 in test [2] of 430 nM. `CNS(=O)(=O)c1ccccc1Nc1nc(Nc2ccc(N3CCOCC3)cc2OC)ncc1Cl` [Example 20-1]: the 50% inhibitory concentration (IC50) in test [1] worked out at 250 nM. `CCNC(=O)c1ccccc1Nc1nc(Nc2ccc(OC3CCN(C)CC3)cc2OC)ncc1Cl` [Example 9-6] showed a half-maximal inhibitory concentration (IC50) in test [1] of 300 nM. On the same count and under the same terms, the value for `CNS(=O)(=O)c1ccccc1Nc1nc(Nc2cc(N3CCN(C(C)=O)CC3)ccc2OC)ncc1Br` [Example 3-34] was 130 nM. For `CC(C)S(=O)(=O)c1ccccc1Nc1nc(Nc2cccc3c2OCC3)ncc1Cl` [Example 28-31], the IC50 in test [2] worked out at 1060 nM. Molecule `CCCS(=O)(=O)c1ccccc1Nc1nc(Nc2cc(N3CCOCC3)ccc2OC)ncc1Cl` [Example 26-17] showed an IC50 in test [1] of 260 nM. As for `CNS(=O)(=O)c1ccccc1Nc1nc(Nc2cc(OC3CCN(C)CC3)ccc2OC)ncc1Br` [Example 3-76], the IC50 in test [1] stood at 700 nM. The same measure, in the same setting: for `CNS(=O)(=O)c1ccccc1Nc1nc(Nc2ccc(OC3CCN(C)CC3)cc2OC)ncc1Br` [Example 3-33] the value was 90 nM. Molecule `CCNC(=O)c1ccccc1Nc1nc(Nc2ccc(N3CCOCC3)cc2OC)ncc1Cl` [Example 9-1] had an IC50 in test [1] of 600 nM. The same measure, in the same setting: for `CNS(=O)(=O)c1ccccc1Nc1nc(Nc2cc(N3CCC(N4CCCCC4)CC3)ccc2OC)ncc1Br` [Example 3-69] the value was 580 nM. On the same count and under the same terms, the value for `COc1cc(N2CCOCC2)ccc1Nc1ncc(Cl)c(Nc2ccccc2C(=O)NC(C)C)n1` [Example 14-2] was 1000 nM; that for `COc1cc(N2CCC[C@H](C(N)=O)C2)ccc1Nc1ncc(Cl)c(Nc2ccccc2S(=O)(=O)C(C)C)n1` [Example 28-27] was 500 nM; that for `COc1cc(N2CCC(O)CC2)ccc1Nc1ncc(Cl)c(Nc2ccccc2S(=O)(=O)C(C)C)n1` [Example 28-16] was 600 nM. Still for that read-out and setting: for `CNS(=O)(=O)c1ccccc1Nc1nc(Nc2cc(N(C)C)ccc2OC)ncc1Br` [Example 3-64] the value was 210 nM. `CNS(=O)(=O)c1ccccc1Nc1nc(Nc2ccc(N3CCN(C)CC3)cc2OC)ncc1Cl` [Example 20-6] returned an IC50 in test [1] of 49000 nM. Regarding `CCC(CC)NS(=O)(=O)c1ccccc1Nc1nc(Nc2ccc(OC3CCN(C)C3)cc2OC)ncc1Cl` (stereo not drawn) [Example 23-7], the half-maximal inhibitory concentration (IC50) against human FAK kinase domain is 2.1 nM; at FAK (Tyr397), 3000 nM; in test [2] (Mus musculus, 4T1) it was 840 nM.

`CCCS(=O)(=O)c1ccccc1Nc1nc(Nc2ccc(N3CCC(O)CC3)cc2OC)ncc1Cl` [Example 26-4] yielded an IC50 in test [1] of 290 nM.

For the molecule `COc1cc(N2CCOCC2)ccc1Nc1ncc(Cl)c(Nc2cccc3c2C(=O)N(C)C3)n1` [Example 12-1, 7-[5-Chloro-2-(2-methoxy-4-morpholin-4-yl-phenylamino)-pyrimidin-4-ylamino]-2-methyl-2,3-dihydro-isoindol-1-one], the half-inhibitory concentration (IC50) in test [1] worked out at 220 nM. Same read-out and setting: for `CNS(=O)(=O)c1ccccc1Nc1nc(Nc2cc(N3CCOCC3)ccc2OC)ncc1Br` [Example 3-32] the value was 280 nM. With `CNS(=O)(=O)c1ccccc1Nc1nc(Nc2ccc(N3CCC(N4CCCCC4)CC3)cc2OC)ncc1Cl` [Example 20-8], the IC50 at human FAK kinase domain was 6.8 nM; in test [1] it was 290 nM; against FAK (Tyr397), 170 nM; in test [2] (Mus musculus, 4T1), 50 nM.

Turning to `CNC(=O)c1ccccc1Nc1nc(Nc2cc(N3CCOCC3)ccc2OC)ncc1Cl` [Example 7-6], the half-inhibitory concentration (IC50) in test [1] is 250 nM. Same read-out and setting: for `CNS(=O)(=O)c1ccccc1Nc1nc(Nc2ccc(N3CCCC(C(N)=O)C3)cc2OC)ncc1Br` (stereo not drawn) [Example 3-68] the value was 1000 nM. `CCCS(=O)(=O)c1ccccc1Nc1nc(Nc2ccc(N3CCN(C(C)C)CC3)cc2OC)ncc1Cl` [Example 26-23]: the half-inhibitory concentration (IC50) in test [2] was determined as 90 nM. Molecule `COc1cc(N2CCOCC2)ccc1Nc1ncc(Cl)c(Nc2ccccc2S(=O)(=O)NC(C)C)n1` [Example 19-8] displayed an IC50 in test [1] of 290 nM. Take `CNS(=O)(=O)c1ccccc1Nc1nc(Nc2cccc3c2CCCC3)ncc1Br` [Example 3-31]: the IC50 in test [2] amounted to 5000 nM. In test [1], `CNC1CCN(c2ccc(Nc3ncc(Cl)c(Nc4ccccc4S(=O)(=O)NC(C)C)n3)c(OC)c2)C1` (stereo not drawn) [Example 19-1] registered an IC50 of 290 nM. In test [1], `COc1cc(N2CCC(N3CCOCC3)CC2)ccc1Nc1ncc(Cl)c(Nc2ccccc2S(=O)(=O)C(C)C)n1` [Example 28-13] showed a half-maximal inhibitory concentration (IC50) of 290 nM. Consider `CCC(C)NS(=O)(=O)c1ccccc1Nc1nc(Nc2ccc(N3CCN(C)CC3)cc2OC)ncc1Cl` (stereo not drawn) [Example 21-1], for which the concentration for half-maximal inhibition (IC50) turned out to be 190 nM in test [2] (Mus musculus, 4T1) and 470 nM on human IGF-IR. For `CNC(=O)c1ccccc1Nc1nc(Nc2cc(N3CCN(C(C)=O)CC3)ccc2OC)ncc1Cl` [Example 7-30], the concentration for half-maximal inhibition (IC50) in test [1] turned out to be 1000 nM. Molecule `Cc1cc(N2CCOCC2)ccc1Nc1ncc(Cl)c(Nc2ccccc2S(=O)(=O)C(C)C)n1` [Example 28-6] registered a half-maximal inhibitory concentration (IC50) in test [2] of 560 nM. On to `CCCS(=O)(=O)c1ccccc1Nc1nc(Nc2ccc(N3CCN(C(C)=O)C(C)(C)C3)cc2OC)ncc1Cl` [Example 26-11], for which the IC50 in test [1] stood at 500 nM.

In test [1], `CNC(=O)c1ccccc1Nc1nc(Nc2ccc(N3CCC(NC)C3)cc2OC)ncc1Cl` (stereo not drawn) [Example 7-12] registered an IC50 of 310 nM. Same read-out and setting: the value for `CNS(=O)(=O)c1ccccc1Nc1nc(Nc2cc(OCCN3CCOCC3)ccc2OC)ncc1Br` [Example 3-35] was 800 nM.

For `CNC(=O)c1cc(N2CCCC2)ccc1Nc1nc(Nc2ccc(N3CCOCC3)cc2OC)ncc1Cl` [Example 15-3], the IC50 amounted to 44 nM at human FAK kinase domain; 2000 nM at FAK (Tyr397); 1670 nM in test [2] (Mus musculus, 4T1). With `COc1cc(N2CCOCC2)ccc1Nc1ncc(Cl)c(Nc2ccccc2C(=O)N(C)C)n1` [Example 14-1], half-maximal inhibition in test [1] (IC50) was put at 280 nM.

In turn, `CNS(=O)(=O)c1ccccc1Nc1nc(Nc2ccc(N3CCN(C(C)=O)CC3)cc2OC)ncc1Cl` [Example 20-2] had an IC50 in test [1] of 750 nM. Take `CCC(CC)NS(=O)(=O)c1ccccc1Nc1nc(Nc2ccc(OC3CCN(C)CC3)cc2OC)ncc1Cl` [Example 23-1]: the IC50 in test [1] worked out at 630 nM. Same read-out and setting: the value for `CNC(=O)c1ccccc1Nc1nc(Nc2ccc(N3CCOCC3)cc2OC)ncc1Cl` [Example 7A, 2-[5-Chloro-2-(2-methoxy-4-morpholin-4-yl-phenylamino)-pyrimidin-4-ylamino]-N-methyl-benzamide] was 40 nM. `CNC(=O)c1ccccc1Nc1nc(Nc2cc(F)ccc2OC)ncc1Br` [Example 8-3] displayed an IC50 in test [2] of 1000 nM.

`CNS(=O)(=O)c1ccccc1Nc1nc(Nc2ccc(-n3ccnc3C)cc2OC)ncc1Br` [Example 3-83] registered an IC50 in test [2] of 320 nM. As to `COc1cc(OC2CCN(C)CC2)ccc1Nc1ncc(Cl)c(Nc2ccccc2S(=O)(=O)C(C)C)n1` [Example 28-19], the 50% inhibitory concentration (IC50) against human FAK kinase domain was found to be 3.7 nM; on FAK (Tyr397), 500 nM; in test [2] (Mus musculus, 4T1), 140 nM.

In test [1], `CNS(=O)(=O)c1ccccc1Nc1nc(Nc2ccc(N3CCN(C(C)=O)CC3)cc2OC)ncc1Br` [Example 3-46] returned an IC50 of 300 nM. On the same count and under the same terms, the value for `COc1cc(N2CCC[C@@H](C(N)=O)C2)ccc1Nc1ncc(Cl)c(Nc2ccccc2S(=O)(=O)C(C)C)n1` [Example 28-28] was 1000 nM. Take `CCNC(=O)c1ccccc1Nc1nc(Nc2ccc(N3CCC(N4CCCCC4)CC3)cc2OC)ncc1Cl` [Example 9-3]: the concentration for half-maximal inhibition (IC50) at human FAK kinase domain amounted to 18 nM; against FAK (Tyr397), 100 nM; in test [2] (Mus musculus, 4T1), 370 nM. `CCCS(=O)(=O)c1ccccc1Nc1nc(Nc2ccc(N3CCN(C(C)=O)CC3)cc2OC)ncc1Cl` [Example 26-2]: inhibition in test [1] was half-maximal at 90 nM (IC50). On to `CNS(=O)(=O)c1ccccc1Nc1nc(Nc2ccc(OC3CCN(C)C3)cc2OC)ncc1Br` (stereo not drawn) [Example 3-82], for which the concentration for half-maximal inhibition (IC50) was determined as 4.8 nM against human FAK kinase domain; 200 nM at FAK (Tyr397); 70 nM in test [2] (Mus musculus, 4T1).

For the molecule `CNS(=O)(=O)c1ccccc1Nc1nc(Nc2ccc(N3CCN(C)CC3)cc2OC)ncc1Br` [Example 3-39], the half-maximal inhibitory concentration (IC50) in test [1] stood at 1000 nM.

(Values after US8263590B2, “Pyrimidine derivatives” (priority 2003, dated 2012).)
